In article PMC11320734 (ACS Pharmacology & Translational Science, 2024):
Read-outs that look alike come from different tables or passages of the source.

How the values were obtained:
GPR55 = GPR55 (Homo sapiens, UniProt Q9Y2T6); assay: Endocannabinoid target profiling: GPR55; conditions: Table S1; read-out: GPR55 (Ki, IC50)
GSH adduct formation = type: in vitro ADME, rat
Protocol: Cytochrome P450 (CYP) assays were conducted as previously described.[41] In brief, RNB-61 was incubated at a range of concentrations with the following components: pooled human liver microsomes, CYP probe substrate around the reported Km, and NADPH with a final concentration: 1 mM in 100 mM sodium phosphate buffer (pH 7.4). The conditions were optimized for a linear metabolic rate for the probe substrate reactions. The analysis of the samples was carried out by LC-MS/MS. The assays generated two endpoints: IC50 (μM) and percent inhibition at the highest acceptable test concentration (typically 50 μM; lower if the highest concentration data are rejected due to insolubility). […] (GSH) adduct formation data was assessed as reported in a previous study.[42] Briefly, RNB-61 was incubated with human liver microsomes to form reactive metabolites, and glutathione was added as a nucleophile to convert the reactive metabolites into stable conjugates that could be analyzed by MS.

COX-2 = COX-2 (Homo sapiens, UniProt P35354); assay: Endocannabinoid target profiling: COX-2; type: biochemical
Sequence of COX-2 (P35354 18-604): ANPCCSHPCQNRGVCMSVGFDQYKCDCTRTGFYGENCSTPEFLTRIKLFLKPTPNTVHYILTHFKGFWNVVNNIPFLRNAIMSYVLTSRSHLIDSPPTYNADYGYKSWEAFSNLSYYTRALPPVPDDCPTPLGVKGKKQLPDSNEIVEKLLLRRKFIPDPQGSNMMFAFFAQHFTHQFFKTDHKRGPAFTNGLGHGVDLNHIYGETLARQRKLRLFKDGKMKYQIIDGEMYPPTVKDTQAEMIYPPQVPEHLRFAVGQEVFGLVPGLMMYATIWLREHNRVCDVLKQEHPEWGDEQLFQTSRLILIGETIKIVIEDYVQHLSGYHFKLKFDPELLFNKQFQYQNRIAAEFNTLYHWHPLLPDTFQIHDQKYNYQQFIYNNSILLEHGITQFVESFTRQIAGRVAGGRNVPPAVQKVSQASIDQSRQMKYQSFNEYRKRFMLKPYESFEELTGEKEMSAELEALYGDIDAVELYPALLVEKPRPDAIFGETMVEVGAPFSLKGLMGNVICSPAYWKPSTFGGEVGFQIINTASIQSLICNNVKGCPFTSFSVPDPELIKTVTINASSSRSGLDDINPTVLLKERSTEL

rat CB2R = target: T1, rat CB2R (Rattus norvegicus, UniProt Q9QZN9); assay: cAMP assay in CHO cells; type: cell-based; conditions: mean ± SD
T1 construct: expressed in transfected cells; host or cells: CHO cells
T1 sequence (Q9QZN9 whole entry): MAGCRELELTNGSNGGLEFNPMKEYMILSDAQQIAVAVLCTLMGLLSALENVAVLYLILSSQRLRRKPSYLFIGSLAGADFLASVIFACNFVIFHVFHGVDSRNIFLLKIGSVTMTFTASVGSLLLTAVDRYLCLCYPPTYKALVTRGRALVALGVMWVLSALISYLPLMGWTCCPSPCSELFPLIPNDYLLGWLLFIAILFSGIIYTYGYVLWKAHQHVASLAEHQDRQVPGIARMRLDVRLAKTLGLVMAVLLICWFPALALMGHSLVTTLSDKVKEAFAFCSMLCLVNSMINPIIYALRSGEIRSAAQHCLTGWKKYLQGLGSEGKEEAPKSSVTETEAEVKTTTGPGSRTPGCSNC

P-gp = assay: Brain penetration study with/without P-gp inhibitor tariquidar; type: in vivo, male C57/BL6 mice; conditions: male, C57/BL6, mouse, with tariquidar 5 mg kg^–1 i.v. bolus, 30 min prior to RNB-61
Protocol: (§1) To characterize the pharmacokinetic behavior of RNB-61, studies in rodents were conducted at the in vivo facility of F. Hoffmann-La Roche Ltd. (Basel, Switzerland). The plasma-concentration time profile was studied in rodents after single-dose RNB-61 administration by oral gavage (p.o. microsuspension excipients 7.5% gelatin/0.62% NaCl) and intravenous bolus injection (i.v. solution, excipients NMP:NaCl (30:70)). Three groups of male Wistar rats (n = 2 per group) were administered RNB-61 either at 1 mg kg^–1 i.v., 3 mg kg^–1 p.o., or 26 mg kg^–1 p.o. Plasma samples were drawn at 0.083, 0.25, 0.5, 1, 2, 4, 8, and 24 postdose in the i.v. group and at 0.25, 0.5, 0.75, 1.5, 3, 5, 8, and 24 h postdose in the p.o. groups. The samples were analyzed for RNB-61 concentration by LC/MS-MS. For the LC/MS-MS analysis, and the samples were prepared by adding 100 uL to 400 uL ACN with ISTD (100 ng/mL Bosantan in ACN/MeOH 1/1), stirring, and centrifuging (4000 rpm, 65’). 100 uL of the supernatant were pipetted and diluted with 400 μL H2O at pH 3. The analytes were separated on a Restek C18 column (5 μm, 1.0 × 3 mm). The mobile phase consisted of water containing 0.1% HCOOH as solvent A and ACN containing 0.1% HCOOH as solvent B. The gradient curve starting with 5% B was changed to 90% B between 0.4 and 0.6 min and further increased to 95% B between 0.6 and 1.2 min. This was maintained until 1.4 min and then reduced and kept at 5% B between 1.45 and 2.0 min. The mass spectrometer was operated in the positive mode. All LC-MS/MS was done using the Agilent RapidFire Analyzer software (version 4.3). The pharmacokinetic parameters were estimated by noncompartmental analysis in the Certara WinNonlin software (version 5.3). A similar study design was run in mice with three groups receiving 2 mg kg^–1 i.v., 4 mg kg^–1 p.o., or 26 mg kg^–1 p.o., and plasma sampling occurring in a composite profile (n = 2 for each time point) up to 7 or 24 h postdose. Male C57/BL6 mice (n = 5 per group) were used to study the influence of P-gp efflux on brain penetration. Two groups of mice were administered RNB-61 by i.v. bolus injection at 1 mg kg^–1 (2 groups). In order to block P-gp activity, an i.v. bolus of 5 mg kg^–1 tariquidar[46] was injected into one group 30 min prior to RNB-61. Plasma was collected at 0.083, 0.25, 0.5, 2, 4, and 7 h postdose in a composite profile. Brain, CSF, and vitreous body were collected at terminal time points 0.5, 2, 4, and 7 h postdose.

[1] = as above; type: in vivo, male C57/BL6 mice
Protocol: as §1

[2] = RNB-61 1 mg kg^–1 i.v. + tariquidar 5 mg kg^–1 i.v.
[3] = RNB-61 1 mg kg^–1 i.v., no tariquidar

Sequence of GPR55 (Q9Y2T6 whole entry, species assumed): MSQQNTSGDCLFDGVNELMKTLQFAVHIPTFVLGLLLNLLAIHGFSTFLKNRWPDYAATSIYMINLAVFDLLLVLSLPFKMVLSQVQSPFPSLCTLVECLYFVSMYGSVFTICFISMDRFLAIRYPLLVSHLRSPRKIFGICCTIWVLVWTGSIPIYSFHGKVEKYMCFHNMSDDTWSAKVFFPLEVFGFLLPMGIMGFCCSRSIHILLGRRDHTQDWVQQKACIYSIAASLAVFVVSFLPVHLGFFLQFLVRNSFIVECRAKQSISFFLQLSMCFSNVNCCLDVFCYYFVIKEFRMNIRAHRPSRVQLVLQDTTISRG

Cn1c(C(C)(C)C)cc(=NC(=O)c2cc(C(F)(F)F)ccc2OCC(C)(C)O)n1CC1CCC1 [RNB-61]
IC50 (GPR55): > 50 µM
GSH adducts (rat liver microsomes) (GSH adduct formation): did not form any adducts
IC50 (COX-2; Table S1, read-out: COX-2 (Ki, IC50)): > 10 µM
inhibition of EC oxygenation (COX-2) (COX-2; screening concentration 10 μM): did not inhibit
EC50 (rat CB2R): 0.00013 ± 7e-05 µM
half-life (P-gp; brain, iv, RNB-61 1 mg kg^–1 i.v. + tariquidar 5 mg kg^–1 i.v., read-out: brain T1/2 (converted)): 8.42 h
Tmax (P-gp; brain, iv, RNB-61 1 mg kg^–1 i.v. + tariquidar 5 mg kg^–1 i.v., read-out: brain Tmax): 0.53 h
Kp (P-gp; intravenous, ratio of AUClast in brain and plasma, + tariquidar 5 mg kg^–1, read-out: brain-plasma partition coefficient Kp): 0.747
Cmax (P-gp; plasma, iv, RNB-61 1 mg kg^–1 i.v. + tariquidar 5 mg kg^–1 i.v.): 737 ng/mL
AUC(0-inf) (P-gp; plasma, iv, RNB-61 1 mg kg^–1 i.v. + tariquidar 5 mg kg^–1 i.v., read-out: plasma AUCinf): 3560 ng·h/mL
AUC(0-t) (P-gp; plasma, iv, RNB-61 1 mg kg^–1 i.v. + tariquidar 5 mg kg^–1 i.v., read-out: plasma AUClast): 2510 ng·h/mL
clearance (P-gp; plasma, iv, RNB-61 1 mg kg^–1 i.v. + tariquidar 5 mg kg^–1 i.v., read-out: plasma CL (converted)): 4.68 mL/min/kg
half-life (P-gp; plasma, iv, RNB-61 1 mg kg^–1 i.v. + tariquidar 5 mg kg^–1 i.v., read-out: plasma T1/2 (converted)): 3.68 h
Tmax (P-gp; plasma, iv, RNB-61 1 mg kg^–1 i.v. + tariquidar 5 mg kg^–1 i.v., read-out: plasma Tmax): 0.083 h
AUClast lower in the brain compared to plasma ([1]; 1 mg kg^–1 i.v., no tariquidar): > 10 fold
peak brain concentration lower compared to plasma level ([1]; 1 mg kg^–1 i.v., no tariquidar): > 20 fold
brain AUCinf [1, 2]: 4386 ng·h/mL
brain AUClast [1, 2]: 1877 ng·h/mL
brain Cmax [1, 2]: 342 ng/mL
brain AUCinf [1, 3]: 375 ng·h/mL
brain AUClast [1, 3]: 215 ng·h/mL
brain Cmax [1, 3]: 41.3 ng/mL
half-life ([1]; male, C57/BL6, mouse, brain, iv, RNB-61 1 mg kg^–1 i.v., no tariquidar, read-out: brain T1/2 (converted)): 5.98 h
Tmax ([1]; male, C57/BL6, mouse, brain, iv, RNB-61 1 mg kg^–1 i.v., no tariquidar, read-out: brain Tmax): 0.58 h
Kp ([1]; male, C57/BL6, mouse, iv, ratio of AUClast in brain and plasma, 1 mg kg^–1 i.v., no tariquidar, read-out: brain-plasma partition coefficient Kp): 0.088
Cmax ([1]; male, C57/BL6, mouse, plasma, iv, RNB-61 1 mg kg^–1 i.v., no tariquidar): 972 ng/mL
AUC(0-inf) ([1]; male, C57/BL6, mouse, plasma, iv, RNB-61 1 mg kg^–1 i.v., no tariquidar, read-out: plasma AUCinf): 3320 ng·h/mL
AUC(0-t) ([1]; male, C57/BL6, mouse, plasma, iv, RNB-61 1 mg kg^–1 i.v., no tariquidar, read-out: plasma AUClast): 2430 ng·h/mL
clearance ([1]; male, C57/BL6, mouse, plasma, iv, RNB-61 1 mg kg^–1 i.v., no tariquidar, read-out: plasma CL (converted)): 5.02 mL/min/kg
half-life ([1]; male, C57/BL6, mouse, plasma, iv, RNB-61 1 mg kg^–1 i.v., no tariquidar, read-out: plasma T1/2 (converted)): 4 h
Tmax ([1]; male, C57/BL6, mouse, plasma, iv, RNB-61 1 mg kg^–1 i.v., no tariquidar, read-out: plasma Tmax): 0.25 h
brain Cmax and AUClast higher with tariquidar than RNB-61 alone ([1]; tariquidar 5 mg kg^–1): ~10 fold
